Test results published in ChEMBL document CHEMBL1201862, “PubChem BioAssay data set” (2004).
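Tested at 5 concentrations; 48 h exposure; 96-well plates; endpoints linearly interpolated, else capped at highest concentration. Here, GI50 denotes the concentration required for 50% inhibition of growth.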 The source made the active and inactive calls. Cut-off read from the data, not from the text of the source: active = GI50 up to about 1.1 µM and inactive = higher.

Experiments:
Test in all cases: NCI tumour cell line growth inhibition, 48 h
[1] = tested on: 786-0
[2] = tested on: A498
[3] = tested on: A549
[4] = tested on: ACHN
[5] = tested on: BT-549
[6] = tested on: CAKI-1
[7] = tested on: CCRF-CEM
[8] = tested on: COLO 205
[9] = tested on: DU-145
[10] = tested on: EKVX
[11] = tested on: HCC 2998
[12] = tested on: HCT-116
[13] = tested on: HCT-15
[14] = tested on: HL-60
[15] = tested on: HOP-62
[16] = tested on: HOP-92
[17] = tested on: HT-29
[18] = tested on: IGROV-1
[19] = tested on: K562
[20] = tested on: KM12
[21] = tested on: LOX IMVI
[22] = tested on: M14
[23] = tested on: MCF7
[24] = tested on: MDA-MB-231
[25] = tested on: MDA-MB-435
[26] = tested on: MDA-N
[27] = tested on: MOLT-4
[28] = tested on: Malme-3M
[29] = tested on: NCI-H226
[30] = tested on: NCI-H23
[31] = tested on: NCI-H460
[32] = tested on: NCI-H522
[33] = tested on: NCI/ADR-RES
[34] = tested on: OVCAR-3
[35] = tested on: OVCAR-4
[36] = tested on: OVCAR-5
[37] = tested on: OVCAR-8
[38] = tested on: PC-3
[39] = tested on: RXF 393
[40] = tested on: SF-268
[41] = tested on: SF-295
[42] = tested on: SF-539
[43] = tested on: SK-MEL-28
[44] = tested on: SK-OV-3
[45] = tested on: SN12C
[46] = tested on: SNB-19
[47] = tested on: SNB-75
[48] = tested on: SR
[49] = tested on: SW-620
[50] = tested on: T47D
[51] = tested on: TK-10
[52] = tested on: U-251
[53] = tested on: UACC-257
[54] = tested on: UACC-62
[55] = tested on: UO-31
[56] = tested on: Hs-578T
[57] = tested on: SK-MEL-2
[58] = tested on: SK-MEL-5

SMILES: Cc1cc(C2CC(O)C(CO)O2)c(F)cc1F (configuration not stated)
- GI50 [1]: > 100 µM (inactive)
- GI50 [2]: > 100 µM (inactive)
- GI50 [3]: > 100 µM (inactive)
- GI50 [4]: > 100 µM (inactive)
- GI50 [5]: > 100 µM (inactive)
- GI50 [6]: > 100 µM (inactive)
- GI50 [7]: > 100 µM (inactive)
- GI50 [8]: > 100 µM (inactive)
- GI50 [9]: > 100 µM (inactive)
- GI50 [10]: > 100 µM (inactive)
- GI50 [11]: > 100 µM (inactive)
- GI50 [12]: > 100 µM (inactive)
- GI50 [13]: > 100 µM
- GI50 [14]: 91.6 µM (inactive)
- GI50 [15]: > 100 µM (inactive)
- GI50 [16]: > 100 µM (inactive)
- GI50 [17]: > 100 µM (inactive)
- GI50 [18]: > 100 µM (inactive)
- GI50 [19]: > 100 µM (inactive)
- GI50 [20]: > 100 µM (inactive)
- GI50 [21]: > 100 µM (inactive)
- GI50 [22]: > 100 µM (inactive)
- GI50 [23]: > 100 µM (inactive)
- GI50 [24]: > 100 µM (inactive)
- GI50 [25]: > 100 µM (inactive)
- GI50 [26]: > 100 µM (inactive)
- GI50 [27]: > 100 µM (inactive)
- GI50 [28]: > 100 µM (inactive)
- GI50 [29]: > 100 µM (inactive)
- GI50 [30]: > 100 µM (inactive)
- GI50 [31]: > 100 µM (inactive)
- GI50 [32]: > 100 µM (inactive)
- GI50 [33]: > 100 µM (inactive)
- GI50 [34]: > 100 µM (inactive)
- GI50 [35]: > 100 µM (inactive)
- GI50 [36]: > 100 µM (inactive)
- GI50 [37]: > 100 µM (inactive)
- GI50 [38]: > 100 µM (inactive)
- GI50 [39]: > 100 µM (inactive)
- GI50 [40]: > 100 µM (inactive)
- GI50 [41]: > 100 µM (inactive)
- GI50 [42]: > 100 µM (inactive)
- GI50 [43]: > 100 µM (inactive)
- GI50 [44]: > 100 µM (inactive)
- GI50 [45]: > 100 µM (inactive)
- GI50 [46]: > 100 µM (inactive)
- GI50 [47]: > 100 µM (inactive)
- GI50 [48]: > 100 µM (inactive)
- GI50 [49]: > 100 µM (inactive)
- GI50 [50]: > 100 µM (inactive)
- GI50 [51]: > 100 µM (inactive)
- GI50 [52]: > 100 µM (inactive)
- GI50 [53]: > 100 µM (inactive)
- GI50 [54]: > 100 µM (inactive)
- GI50 [55]: > 100 µM (inactive)

SMILES: Nc1c(C(=O)c2ccccc2)[nH]c(NCc2ccccc2)c1C(=S)Nc1ccccc1
- GI50 [1]: > 100 µM (inactive)
- GI50 [2]: > 100 µM (inactive)
- GI50 [3]: > 100 µM (inactive)
- GI50 [4]: > 100 µM (inactive)
- GI50 [5]: > 100 µM (inactive)
- GI50 [6]: > 100 µM (inactive)
- GI50 [7]: > 100 µM (inactive)
- GI50 [8]: > 100 µM (inactive)
- GI50 [9]: > 100 µM (inactive)
- GI50 [10]: > 100 µM (inactive)
- GI50 [11]: > 100 µM (inactive)
- GI50 [12]: > 100 µM (inactive)
- GI50 [13]: > 100 µM
- GI50 [14]: > 100 µM (inactive)
- GI50 [15]: > 100 µM (inactive)
- GI50 [16]: > 100 µM (inactive)
- GI50 [17]: > 100 µM (inactive)
- GI50 [56]: > 100 µM (inactive)
- GI50 [18]: > 100 µM (inactive)
- GI50 [19]: > 100 µM (inactive)
- GI50 [20]: > 100 µM (inactive)
- GI50 [21]: > 100 µM (inactive)
- GI50 [22]: > 100 µM (inactive)
- GI50 [23]: > 100 µM (inactive)
- GI50 [24]: > 100 µM (inactive)
- GI50 [25]: > 100 µM (inactive)
- GI50 [26]: > 100 µM (inactive)
- GI50 [27]: > 100 µM (inactive)
- GI50 [28]: > 100 µM (inactive)
- GI50 [29]: > 100 µM (inactive)
- GI50 [30]: > 100 µM (inactive)
- GI50 [31]: > 100 µM (inactive)
- GI50 [32]: > 100 µM (inactive)
- GI50 [33]: > 100 µM (inactive)
- GI50 [34]: > 100 µM (inactive)
- GI50 [35]: > 100 µM (inactive)
- GI50 [36]: > 100 µM (inactive)
- GI50 [37]: > 100 µM (inactive)
- GI50 [39]: > 100 µM (inactive)
- GI50 [40]: > 100 µM (inactive)
- GI50 [41]: > 100 µM (inactive)
- GI50 [42]: > 100 µM (inactive)
- GI50 [43]: > 100 µM (inactive)
- GI50 [57]: > 100 µM (inactive)
- GI50 [58]: > 100 µM (inactive)
- GI50 [44]: > 100 µM (inactive)
- GI50 [45]: > 100 µM (inactive)
- GI50 [46]: > 100 µM (inactive)
- GI50 [47]: > 100 µM (inactive)
- GI50 [48]: > 100 µM (inactive)
- GI50 [49]: > 100 µM (inactive)
- GI50 [50]: > 100 µM (inactive)
- GI50 [51]: > 100 µM (inactive)
- GI50 [52]: > 100 µM (inactive)
- GI50 [53]: > 100 µM (inactive)
- GI50 [54]: > 100 µM (inactive)
- GI50 [55]: > 100 µM (inactive)
